In US5804549A, “Compositions with activity against helicobacter” (AMBI Inc., priority 1996, dated 1998):

System: H. pylori strain ATCC 43504
Assay: bactericidal activity: survival of bacteria by viable counts (CFU/ml)
Assay type: cell-based, Helicobacter pylori
Experimental: All tests of bactericidal activity in this example were conducted for 30 minutes at 37° C. The parameter measured was survival of bacteria exposed to GML and/or nisin, as determined by viable counts (colony forming units per ml [CFU/ml]) determined by standard dilution and plating techniques. Media, growth and test conditions were as follows: All cultures of Helicobacter were incubated under microaerobic conditions in GasPak. H. pylori was cultured for 2 to 4 days on Trypticase Soy agar+5% defibrinated sheep blood and then inoculated into NYCIII broth and grown overnight with gentle shaking. [NYCIII broth contains, per liter: 1 g soluble starch (Difco), 15 g proteose peptone #3 (Difco), 5 g NaCl, 4 gK2 HPO4, 1 g KH2 PO4, 5 g glucose, 25 ml fresh yeast extract (Gibco), 120 ml gamma-globulin-free horse serum (Sigma)]. Suspensions for testing the activity of GML and nisin were in 10% sucrose. Viable counts were determined after 3-5 days' growth on Trypticase Soy agar-5% sheep blood.
A suspension of bacteria was divided and exposed to different concentrations of the agents, singly or combined. Survival of bacteria is expressed relative to the unincubated (zero time) control suspension. Nisin alone, at concentrations between 30 and 300 μg/ml, had little or no effect on the viability of H. pylori (survival ≥10%). At concentrations of 1 and 3 μg/ml GML, in the absence of nisin, there was also little or no reduction in the viability of the inoculum (survival≥10%). […] When the bacteria were exposed to 10 μg/ml of GML alone, again more than 10% of the bacteria survived.

| Compound | effect on the viability of H. pylori (nisin 30-100 μg/ml administered alone) | Survival of bacteria relative to the unincubated (zero time) control suspension (nisin alone, 30 to 300 μg/ml, 30 minutes at 37° C., 10% sucrose, no chelator) | Survival of bacteria relative to the unincubated (zero time) control suspension (10 μg/ml of GML alone, 30 minutes at 37° C.) | effect on the viability of H. pylori (GML 10 μg/ml administered alone) | Survival of bacteria relative to the unincubated (zero time) control suspension (GML 1 and 3 μg/ml, in the absence of nisin, 30 minutes at 37° C.) | effect on viability of the bacterial suspensions (GML alone, 30 or 100 μg/ml, 30 minutes at 37° C.) |
| --- | --- | --- | --- | --- | --- | --- |
| nisin | little effect on the viability | ≥ 10% | – | – | – | – |
| CCCCCCCCCCCC(=O)OCC(O)CO (stereo not drawn) [GML, Glycerol monolaurate] | – | – | more than 10% | little effect on the viability | ≥ 10% | sterilized the bacterial suspensions |
